Laboratory results published in patent US20250249001A1, “METHODS OF TREATING SUBSTANCE USE DISORDER WITH 4-(3-CYANOPHENYL)-6-PYRIDINYLPYRIMIDINE MGLU5 NEGATIVE ALLOSTERIC MODULATORS” (Tempero Bio, Inc., priority 2022, published 2025).

Experiments:
[1] = test system: voluntary home-cage alcohol drinking by Wistar rats; experiment: Home-cage two-bottle choice alcohol drinking, acute treatment; type: in vivo; conditions: each drug 3 mg/kg i.p. acute
Method: Animals: Male Wistar rats (Charles River Laboratories, INC) were used in these studies. Rat housing and testing was conducted at the University of North Carolina at Chapel Hill (UNC-CH) School of Medicine in a state-of-the-art rodent vivarium approved by the Association for Assessment and Accreditation of Laboratory Animal Care International (AAALAC). Rat health was monitored daily by study investigators and veterinarians in the Division of Comparative Medicine UNC. All experimental procedures were carried out in accordance with the NIH Guide to Care and Use of Laboratory Animals (Committee for the Update of the Guide for the Care and Use of Laboratory Animals, 2011) and institutional guidelines.
Rats were housed individually in standard Plexiglas cages with standard rodent food and water available ad libitum. Upon arrival from the vendor, rats were given 7 days to acclimate to the vivarium during which they were weighed and handled by an investigator each day to monitor general health and habituate them to human contact. Rats were then weighed each day within 1-h of experimental procedures to calculate drug dosages relative to body weight. […] The colony was maintained at […] on a 12-hour light/dark cycle, with the lights on from 10 AM-10 PM. All behavioral experiments were conducted during the light portion of the light cycle.
Home-cage alcohol drinking method. Oral alcohol and water intake were examined using a two-bottle choice protocol, which is standard in the field and commonly used in our laboratory. Male Wistar rats (n=12) were first adapted to drinking from a 50 ml conical tube fitted with a standard stainless-steel ball bearing sipper tube that limits spillage. Then, two bottles were place on the cage daily. One bottle contained an alcohol solution and the other contained water. Bottles containing fresh solutions were weighed daily before and after a 24 hr access period. After drug treatment, bottles were weighed after 1 hr and 24 hrs of access. Each week, rats had 4-5 days of sweetened alcohol and water available and the remaining days only water.
Briefly, rats were first exposed to alcohol (10% v/v)+sucrose (5% w/v). versus water in the two bottles. Then, over a period of 6-weeks, the concentrations of alcohol and sucrose were gradually adjusted to alcohol (8% v/v)+sucrose (2% w/v) to achieve intake of pharmacologically relevant doses of alcohol. Rats were maintained at this concentration for the duration of the experiment for both acute (3.1.a) and chronic (3.1.b) home-cage drinking studies. Use of sweetened alcohol solutions in preclinical research provides face validity to the binge-intoxication stage of alcohol addiction in humans where sweeteners are commonly added to alcohol.
Compound 1 treatment. After establishing baseline intake of sweetened alcohol and water, rats were habituated to i.p. injections. All rats (N=12) were administered 3 habituation injections of vehicle (10% w/v kolliphor in BCD (10%)) prior to the Compound 1 dose response curve and alcohol intake was measured. Then, the Compound 1 dose response curve was conducted with dose order randomized according to a modified Latin-Square design. Rats were given a minimum of 1-2 days between injections to ensure normal drinking was re-established in absence of drug administration. Each dose of Compound 1 (0-10 mg/kg) was administered via i.p. injection and rats were placed back in the home-cage for 1 hr prior to the return of sweetened alcohol and water. Alcohol intake was measured after 1-h and 24-hrs of access in grams by weighing the drinking bottles. Data were excluded from 1 rat that emptied both bottles fully each day without drinking the solutions; thus, results are presented for a final group of N=11 rats.
Efficacy comparisons to MPEP and Naltrexone. […]

[2] = test system: cue-induced reinstatement of alcohol-seeking behavior in Wistar rats; conditions: earlier work of the authors; cited from earlier work
[3] = test system: cocaine reinstatement in rats; experiment: Yohimbine-induced reinstatement of cocaine self-administration (Stage II); type: in vivo, Sprague-Dawley rats
Method: After completion of Stage I, the rats were re-trained with cocaine for one week to ensure stable baseline. And then the rats underwent a 6-day extinction training procedure in which only saline infusion occurred when active lever was pressed. Meanwhile, the rats were divided into 3 roughly even groups for pharmacological stressor-induced reinstatement—All rats received one injection of alpha-2 adrenergic antagonist yohimbine (2 mg/kg) and then placed into the training box immediately). Thirty min before yohimbine treatment, one group of rats received saline, another group received MTEP 3 mg/kg injection, and the 3rd group received Compound 1 at 3 mg/kg.
Yohimbine-induced reinstatement was re-tested two more times in the same rats 3 days and 6 days after the first test, under continuous extinction procedure (There were 2 more days of extinction training between the 1st and 2nd reinstatement test, and between the 2nd and 3rd reinstatement test). Using the 3×3 within subject design, each given animal goes through all three treatments (saline, MTEP and Compound 1) across the three rounds of test.
(§1) A one-way mixed-effects model (REML) of ANOVA followed by Dunnett's post hoc tests were used to analyze efficacy of Compound 1 and MTEP on cocaine self-administration in stages I (The repeated measure ANOVA was not totally applicable due to a few outlier data points, which are removed), and one-way mixed-effects model (REML) of ANOVA followed by Tukey's post hoc tests were used in Stage II. An effect was considered significant if P<0.05. Data were represented as the mean and standard error to the mean (s.e.m).
Statistical outliers which exceeded mean +/− (2× standard deviation) of the group were removed from the analysis. Also, for reinstatement, the extinction time was shortened (from 9 days plus extension as option to 6 days). In the present study, 3 rounds of reinstatement tests were performed, and we wished to maintain the reinstatement power, thus we cut extinction duration. Accordingly, we loosened the extinction criterion from 6 or less infusions to 9 or less infusions during the last extinction session. With this criterion, 17 out of 21 rats were eligible in drug test in Stage II.

[4] = test system: oxycodone reinstatement in rats; experiment: Yohimbine-induced reinstatement of oxycodone self-administration; type: in vivo, Sprague-Dawley rats; conditions: yohimbine 2 mg/kg; P<0.001
Method: Evaluation of Compound 1 on Oxycodone Reinstatement. After completion of testing rats were re-trained with oxycodone for one week to ensure stable baseline. Rats then underwent a 6-day extinction where only saline infusion occurred when active lever was pressed. Meanwhile, the rats were divided into 3 groups: All rats received one injection of alpha-2 adrenergic antagonist yohimbine (2 mg/kg) with 0 min pretreatment (rats were placed into the training box immediately). Thirty minutes before yohimbine treatment, one group of rats received saline, another group received MTEP 3 mg/kg injection, and the 3rd group received Compound 1 (3 mg/kg). Yohimbine-induced reinstatement was re-tested two more times in the same rats 3 days and 6 days after the first test, under continuous extinction procedure.
as §1, with “Statistical Analysis. Prism 9.40 software package Version 9 was used for statistical analysis and graphing. The number of active lever responses were recorded during each session and compared between treatment groups. A one-way” for “A one-way”, “MTEP on oxycodone self-administration in” for “MTEP on cocaine self-administration in”, “mean (s.e.m). Statistical outliers which exceeded mean +/− (2× standard deviation) of the group were removed from the analysis.” for “mean (s.e.m).”

[5] = yohimbine 2 mg/kg after saline pretreatment

Row | Compound | alcohol intake at the 24-hr measurement interval, comparison of equivalent doses [1] | alcohol drinking at 1-hr of access vs vehicle control, positive control comparison ([1]; N=11) | cue-induced reinstatement in rats [2] | cocaine reinstatement, Mean Diff., Last Day of Cocaine Retraining vs. Saline - Yohimbine 2 mg/kg [3, 5] | cocaine reinstatement, Mean Diff., Last Day of Extinction vs. Saline - Yohimbine 2 mg/kg [3, 5] | reinstatement of cocaine self-administration after extinction ([3]; yohimbine 2 mg/kg, P<0.001) | reinstatement of oxycodone self-administration relative to extinguished level [4]
1 | Cc1cccc(C#Cc2ccccc2)n1 [MPEP, reference compound] | only Compound 1 (3 mg/kg) maintained efficacy | significantly decreased alcohol drinking | blocks cue-induced reinstatement |  |  |  | 
2 | COC(=O)[C@@H]1[C@H]2C[C@H]3c4[nH]c5ccccc5c4CCN3C[C@@H]2CC[C@@H]1O [Yohimbine, yohimbine] |  |  |  | 6.294 | −14.53 | induced significant reinstatement | induced significant reinstatement
